This is an account of results in patent publication US9944666B2, “Compounds that are S1P modulating agents and/or ATX modulating agents” (BIOGEN MA INC., priority 2012, dated 2018).

SMILES strings stand for the structures. Where only a bound is given, the exact number is not on record here.

The target of this test is T1, Human ATX protein (Homo sapiens, UniProt Q13822).
T1 construct: made in house
The test is described as follows: ATX biochemical FRET assay with FS-3 substrate. To be noted: FS-3 2 μM, ATX 1.0 μg/mL, room temperature 2 hours, fluorescence 485/538 nm. The source says: ATX (Autotaxin) is a 125 KDa glycoprotein with lysophospholipase D (LPLD) activity that generates the bioactive lipid lysophosphatidic acid (LPA) from lysophosphatidylcholine (LPC). The ATX biochemical assay utilizes a FRET (fluorescence resonance energy transfer) technology platform. The fluorescence signal of FRET substrate FS-3 is quenched due to intra-molecular FRET of a fluorophore to a non-fluorescing quencher (Ferguson, C. G., et al., Org Lett. 2006 May 11; 8(10): 2023-2026, which is incorporated by reference in its entirety). ATX catalyzes the hydrolysis of the substrate which separates the dabsyl quencher from the fluorescein reporter, which becomes fluorescent. The reaction is monitored by a SpectraMax M5 (Molecular Devices, Sunnyvale, Calif.) with at excitation wavelength 485 nm and emission wavelength […].
Fatty acid free-BSA (Sigma A8806): 10 mg/ml, in H2O, stored at 4° C.
2×ATX assay buffer: 100 mM Tris, 280 mM NaCl, 10 mM KCl, 2 mM CaCl2, 2 mM MgCl2, pH 7.4.
Human ATX protein: expressed and purified in house. Stored at −80° C.
Substrate FS-3 (Echelon, L-2000): 100 μg in 77.74 μL H2O (1 mM stock), stored at −20° C.
384-well flat bottom plates—Corning #3575.
Compound dilution—All compounds were provided at 10 mM in 100% DMSO. In the first well, 2 μL of 10 mM compound was added to 78 μL of DMSO (1:40 dilution). In subsequent wells 3-fold dilution (total 10 dilutions) were performed.
1×ATX assay buffer was made up with a final concentration of 1 mg/mL fatty acid free-BSA using 2×ATX assay buffer, 10 mg/ml fatty acid free-BSA and ddH2O.
ATX protein was diluted with 1×ATX assay buffer to a concentration of 1.32 μg/mL (1.32×). 38 μL was added per well to the assay plate. The final concentration of ATX in the reaction as 1.0 μg/mL.
2 μL per well of compounds was transferred to provide the desired concentration. The plate was centrifuged, then incubated at room temperature for 30 minutes on the shaker.
FS-3 was diluted with 1×ATX assay buffer to a concentration of FS-3 of 10 μM (5×). Then, 10 μL was added per well to the assay plate. The final concentration of FS-3 in the reaction was 2 μM. The plate was centrifuged. The plate was kept shaking at room temperature for 2 hours. Because FS-3 substrate is light sensitive, plates were kept covered and protected from light.
Fluorescence was measured using SpectraMax M5 (excitation at 485 nm/emission at 538 nm, top read).
`O=C(O)C1CC2CCC(C1)N2C(=O)Cc1ccc2c(C(F)(F)F)c(O[C@H]3CC[C@@H](C(F)(F)F)CC3)ccc2c1` (relative stereo) [Example 117, 2-(2-(5-(trifluoromethyl)-6-((cis-4-(trifluoromethyl)cyclohexyl)oxy)naphthalene-2-yl)acetyl)-2-azabicyclo[1.2.3]octane-7-carboxylic acid]: the IC50 was ≤ 500 nM.
The value for `CC(c1ccc2c(C(F)(F)F)c(O[C@H]3CC[C@@H](C(F)(F)F)CC3)ccc2c1)N1C2CCC1CC(C(=O)O)C2` (relative stereo) [Example 122, 8-(1-(5-(trifluoromethyl)-6-((cis-4-(trifluoromethyl)cyclohexyl)oxy)-naphthalene-2-yl)ethyl)-8-azabicyclo[3.2.1]octane-3-carboxylic acid] was ≤ 100 nM; that for `CC1(C)C2CCC1(C(=O)O)C(NCc1ccc3c(C(F)(F)F)c(O[C@H]4CC[C@@H](C(F)(F)F)CC4)ccc3c1)C2` (relative stereo) [Example 123, 3-(((5-(trifluoromethyl)-6-((cis-4-(trifluoromethyl)cyclohexyl)oxy)naphthalen-2-yl)methyl)amino)-7,7-dimethylbicyclo[2.2.1]heptane-4-carboxylic acid] was ≤ 500 nM; that for `CC(c1ccc2c(C(F)(F)F)c(O[C@H]3CC[C@@H](C)CC3)ccc2c1)N1C2CCC1CC(C(=O)O)C2` (relative stereo) [Example 124, 8-(1-(6-((cis-4-Methylcyclohexyl)oxy)-5-(trifluoromethyl)naphthalen-2-yl)ethyl)-8-azabicyclo[3.2.1]octane-3-carboxylic acid] was ≤ 100 nM.
Take `C[C@H]1CC[C@@H](Oc2ccc3cc(C(=O)N4C5CCCC4CC(C(=O)O)C5)ccc3c2C(F)(F)F)CC1` (relative stereo) [Example 125, 9-(6-((cis-4-Methylcyclohexyl)oxy)-5-(trifluoromethyl)-2-naphthoyl)-9-azabicyclo[3.3.1]nonane-3-carboxylic acid]: the IC50 was ≤ 250 nM.
With `C[C@H]1CC[C@@H](Oc2ccc3cc(CN4C5COCC4CC(C(=O)O)C5)ccc3c2C(F)(F)F)CC1` (relative stereo) [Example 126, 9-((6-((cis-4-Methylcyclohexyl)oxy)-5-(trifluoromethyl)naphthalen-2-yl)methyl)-9-aza-7-oxa-bicyclo[3.3.1]nonane-3-carboxylic acid], the IC50 was ≤ 250 nM.
The value for `CCC(c1ccc2c(C(F)(F)F)c(O[C@H]3CC[C@@H](C)CC3)ccc2c1)N1C2CCC1CC(C(=O)O)C2` (relative stereo) [Example 127, 8-(1-(6-((cis-4-Methylcyclohexyl)oxy)-5-(trifluoromethyl)naphthalen-2-yl)propyl)-8-azabicyclo[3.2.1]octane-3-carboxylic acid] was ≤ 100 nM.
The value for `CCC(c1ccc2c(C(F)(F)F)c(O[C@H]3CC[C@@H](C)CC3)ccc2c1)N1C2CCCC1CC(C(=O)O)C2` (relative stereo) [Example 128, 9-(1-(6-((cis-4-Methylcyclohexyl)oxy)-5-(trifluoromethyl)naphthalen-2-yl)propyl)-9-azabicyclo[3.3.1]nonane-3-carboxylic acid] was ≤ 100 nM.
Take `C[C@H]1CC[C@@H](Oc2ccc3cc(CN4C5CC(O)CC4CC(C(=O)O)C5)ccc3c2C(F)(F)F)CC1` (relative stereo) [Example 129, 9-((6-((cis-4-Methylcyclohexyl)oxy)-5-(trifluoromethyl)naphthalen-2-yl)methyl)-7-hydroxy-9-aza-bicyclo[3.3.1]nonane-3-carboxylic acid]: the IC50 is ≤ 500 nM.
Consider `CC(c1ccc2c(C(F)F)c(O[C@H]3CC[C@@H](C)CC3)ccc2c1)N1C2CCCC1CC(C(=O)O)C2` (relative stereo) [Example 132, 9-(1-(5-(difluoromethyl)-6-((cis-4-methylcyclohexyl)oxy)naphthalen-2-yl)ethyl)-9-azabicyclo[3.3.1]nonane-3-carboxylic acid], for which the IC50 is ≤ 100 nM.

The term IC50 denotes the concentration that inhibits the measured activity by half. Read a high IC50 as weaker potency in that assay.
